The source of these data is patent US20080312271A1, “AZABENZIMIDAZOLYL COMPOUNDS” (Pfizer Inc., priority 2006, published 2008).

The target of the first test is T1, mGluR2 receptor (metabotropic glutamate receptor 2) (Homo sapiens, UniProt Q14416).
T1 construct: expressed in transfected cells
T1 sequence (Q14416 19-872, species assumed): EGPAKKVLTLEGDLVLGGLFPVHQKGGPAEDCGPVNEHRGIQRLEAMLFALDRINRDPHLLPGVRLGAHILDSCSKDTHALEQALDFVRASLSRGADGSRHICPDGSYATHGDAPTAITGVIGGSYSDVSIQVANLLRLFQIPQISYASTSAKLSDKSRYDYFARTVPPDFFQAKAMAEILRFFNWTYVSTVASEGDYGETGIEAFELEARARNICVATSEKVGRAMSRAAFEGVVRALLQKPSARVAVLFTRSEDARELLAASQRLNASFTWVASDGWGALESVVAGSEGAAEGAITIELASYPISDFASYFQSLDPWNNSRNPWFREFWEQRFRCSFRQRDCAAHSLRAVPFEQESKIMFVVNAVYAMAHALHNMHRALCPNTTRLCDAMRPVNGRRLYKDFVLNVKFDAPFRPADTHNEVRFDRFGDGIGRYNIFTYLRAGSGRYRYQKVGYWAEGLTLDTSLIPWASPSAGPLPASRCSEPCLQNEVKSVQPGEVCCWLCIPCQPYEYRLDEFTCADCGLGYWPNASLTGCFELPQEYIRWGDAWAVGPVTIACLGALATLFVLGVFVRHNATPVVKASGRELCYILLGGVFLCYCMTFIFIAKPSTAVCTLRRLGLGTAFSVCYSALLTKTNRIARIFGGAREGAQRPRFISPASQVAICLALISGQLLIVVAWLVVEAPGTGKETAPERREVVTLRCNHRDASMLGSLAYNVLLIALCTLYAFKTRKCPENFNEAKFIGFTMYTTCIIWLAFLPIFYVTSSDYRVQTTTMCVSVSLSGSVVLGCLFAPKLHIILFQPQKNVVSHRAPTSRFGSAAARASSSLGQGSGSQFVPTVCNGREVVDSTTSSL
The test can be described thus: mGluR2 Potentiator Screen, FLIPR, EC10-EC20 glutamate challenge. The class given is cell-based.
Conditions: not given
The method, then: Procedure for mGluR2 Potentiator Screen NLB methods EC10-EC20 Challenge Cell Culture and Plating:
Cells used for this screen are HEK cells stably transfected with the mGluR2 receptor (metabotropic glutamate receptor 2) and the Gα15 G protein. Clones were identified by functional activity (FLIPR). Cells are grown in growth media containing: DMEM High Glucose with Glutamine and Na Pyruvate (GIBCO), 10% (v/v) Heat inactivate FBS (GIBCO), G418 500 ug/ml (from 50 mg/ml stock) (GIBCO) and Blasticidin 3 ug/ml (from 5 mg/ml stock made in H2O) (Invitrogen).
2 days before the assay cell are trypsinized with 0.25% trysin/EDTA (GIBCO), spun down at 1000 rpm for 5 minutes, resuspended in growth media and plated on polystyrene 384 well black wall 1 clear bottom poly-D-lysine coated plates at a density of approximately 18,000 cells/well in a volume of 50 μL per well. One day before the assay the growth media is removed from the plates by flicking, and replaced with media containing DMEM High Glucose without Glutamine and Na Pyruvate (GIBCO) and 10% (v/v) dialyzed FBS (GIBCO). The reason for the removal of glutamine the day before the assay is to minimize the amount of glutamate that will be present during the assay, as endogenous glutarnate released from the cells can reduce the fluorescent response and interfere with the FLIPR screen.
FLIPR Methods and Data Analysis:
On the day of the assay, the FLIPR assay is performed using the following methods.
The pH is adjusted to 7.4 with 1 M NaOH. Prepare a 2 mM (approx.) stock solution of Fluo-4,am (Molecular Probes) dye in DMSO-22 μl DMSO per 50 ug vial (440 μL per 1 mg vial). Make a 1 mM (approx.) flou-4, PA working solution per vial by adding 22 μl of 20% pluronic acid (PA), (Molecular Probes) in DMSO to each 50 ug vial (440 μL per 1 mg vial). Prepare a 250 mM Probenecid (Sigma) stock solution by dissolving 0.71 g into 5 ml 1N NaOH and 5 ml assay buffer (for each liter of assay wash buffer)L Make 4 uM (approx.) dye incubation media by adding […] per 11 ml DMEM high glucose without glutamine (220 ml per 1 mg vial). Add 110 μL probenecid stock per 11 ml (2.5 mM final [concentration]). To the dye media add 3 units/ml of glutamic-pyruvic transaminase (GPT, Sigma) and 3 mM Na Pyruvate. The assay has worked with dye concentrations from 2 uM to 8 uM dye as well. To the assay buffer from drug preparation, add 1.83 mls DMSO and 400 μL 15.8% P104 (from New Leads biology) per liter for final concentrations of 0.18% DMSO and 0.006% P104. To the assay buffer for cell washing, add probenecid in the same manner and concentration that was used for the dye media.
Remove growth media from cell plates by flicking. Add 50 μl/well dye solution. Incubate 1 hour at 37° C. and 5% CO2. Remove dye solution and wash 3 times with assay buffer+probenecid (100 μl probenecid stock per 10 ml buffer), leaving 30 μL/well assay buffer. Wait at least 10-15 minutes. Compounds and agonist challenge additions are performed with the FLIPR. The 1st addition is for test compounds, which are added as 15 μL of 4×[concentration] of potentiator. The second 2nd addition is 15 μL of 4×[concentration] of agonist or challenge. This achieves 1× concentration of all compounds only after 2nd addition. The 1st and 2nd additions are performed separately using the FLIPR, which give 2 different data files. Compounds are pretreated at least 30 minutes before agonist addition,
Results are analyzed by dividing the peak fluorescent value of the FLIPR response by the […] to achieve a ratio response. The ratios are then analyzed by curve fitting programs. […] Maximum values for dose response curves (forced fitting) are derived from standards on the plate.
Compound Preparation and Glutamate Challenge:
Compounds are delivered as 10 mM DMSO stocks or as powders, Powders are solubilized in DMSO at 10 mM (as solubility allows). Compounds are sonicated in a heated water bath (35-40° C.) for at least 20 minutes.
Take `C[C@@H]1CN(Cc2nc3cnccc3n2C)CC[C@@H]1c1ccc(OC(F)F)cc1Cl` (relative stereo) [compound 202]: the EC50 is 0.125 µM.

Regarding `C[C@@H]1CN(Cc2nc3ncccc3n2C)CC[C@@H]1c1ccc(OC(F)F)cc1Cl` (relative stereo) [compound 203], the concentration for a half-maximal effect (EC50) was determined as 0.0436 µM.

Regarding `COc1ccccc1C1CCN(Cc2nc3ncccc3n2C)CC1C` (centres unmarked) [compound 60], the 50% effective concentration (EC50) is 0.302 µM.

Regarding `C[C@@H]1CN(Cc2nc3cnccc3n2C)CC[C@@H]1c1cc(F)c(F)cc1F` (single isomer, unassigned) [compound 226], the EC50 is above 1.26 µM.

Take `C[C@@H]1CN(Cc2nc3ncccc3n2C)CC[C@@H]1c1ccc(C(F)(F)F)cc1` (single isomer, unassigned) [compound 118]: the EC50 was 0.0334 µM.

As to `Cc1ccc([C@H]2CCN(Cc3nc4cnccc4n3C)C[C@H]2C)c(Cl)c1` (relative stereo) [compound 209], the concentration giving a half-maximal response (EC50) was 0.159 µM.

As for `Cn1c(CN2CCC(c3ccc(F)c(Cl)c3)CC2)nc2ncccc21` [compound 101], the EC50 came to 0.313 µM.

For `CC(C)Oc1ccc([C@H]2CCN(Cc3nc4cnccc4n3C)C[C@H]2C)c(Cl)c1` (relative stereo) [compound 170], the EC50 turned out to be 0.284 µM.

With `CC(C)Oc1ccc([C@H]2CCN(Cc3nc4cnccc4n3C)C[C@H]2C)cc1F` (relative stereo) [compound 181], the EC50 worked out at 1.09 µM.

For `C[C@@H]1CN(Cc2nc3cnccc3n2C)CC[C@@H]1c1ccccc1F` (single isomer, unassigned) [compound 117], the concentration giving a half-maximal response (EC50) was above 0.359 µM.

Take `C[C@@H]1CN(Cc2nc3cnccc3n2C)CC[C@@H]1c1cc(F)c(F)cc1F` (single isomer, unassigned) [compound 225]: the EC50 was determined as 0.095 µM.

On to `C[C@@H]1CN(Cc2nc3cnccc3n2C)CC[C@@H]1c1ccccc1F` (single isomer, unassigned) [compound 73], for which the EC50 was 0.242 µM.

Regarding `COc1cc(C(F)(F)F)ccc1[C@H]1CCN(Cc2nc3cnccc3n2C)C[C@H]1C` (single isomer, unassigned) [compound 141], the EC50 turned out to be 1.31 µM.

On to `Cc1ccccc1C1CCN(Cc2nc3ncccc3n2C)CC1` [compound 89], for which the EC50 was determined as 0.823 µM.

Take `C[C@@H]1CN(Cc2nc3ncccc3n2C)CC[C@@H]1c1ccc2c(c1)CCO2` (relative stereo) [compound 200]: the EC50 worked out at 0.469 µM.

Regarding `COc1ccc(Cl)cc1C1CCN(Cc2nc3cccnc3n2C)CC1` [compound 44], the half-maximal effective concentration (EC50) is above 0.808 µM.

`Cn1c(CN2CCC(c3cccc(F)c3F)CC2)nc2ncccc21` [compound 108]: the EC50 stood at 0.307 µM.

Take `C[C@@H]1CN(Cc2nc3ncccc3n2C)CC[C@@H]1c1cc(F)c(F)cc1F` (relative stereo) [compound 179]: the EC50 stood at 0.381 µM.

On to `Cn1c(CN2CCC(c3ccc(Cl)cc3)CC2)nc2ncccc21` [compound 80], for which the concentration giving a half-maximal response (EC50) is above 9.11 µM.

With `CO[C@@H]1CN(Cc2nc3cnccc3n2C)CC[C@@H]1c1ccc(C(F)(F)F)cc1` (relative stereo) [compound 227], the EC50 was 0.606 µM.

Consider `CC(C)Oc1cc(F)ccc1[C@H]1CCN(Cc2nc3ncccc3n2C)C[C@H]1C` (relative stereo) [compound 191], for which the half-maximal effective concentration (EC50) stood at 0.61 µM.

Regarding `Cn1c(CN2CCC(c3ccc(F)c(Cl)c3)CC2)nc2cnccc21` [compound 102], the 50% effective concentration (EC50) came out at 0.482 µM.

Turning to `CC(C)Oc1ccc([C@H]2CCN(Cc3nc4ncccc4n3C)C[C@H]2C)c(Cl)c1` (single isomer, unassigned) [compound 222], the EC50 was above 0.603 µM.

As for `C[C@H]1CN(Cc2nc3ncccc3n2C)CC[C@H]1c1ccc(Cl)cc1F` [compound 123], the 50% effective concentration (EC50) is above 1.81 µM.

Consider `C[C@@H]1CN(Cc2nc3cnccc3n2C)CC[C@@H]1c1ccc(OC(F)(F)F)cc1` (single isomer, unassigned) [compound 176], for which the concentration giving a half-maximal response (EC50) is 0.0989 µM.

In the case of `Cn1c(CN2CCC(c3ccc(C(F)(F)F)cc3)C(C)(C)C2)nc2ncccc21` (centres unmarked) [compound 76], the EC50 was 0.745 µM.

Regarding `Cn1c(CN2CCC(c3cccc(Cl)c3)CC2)nc2ncccc21` [compound 78], the concentration giving a half-maximal response (EC50) is 0.88 µM.

For the molecule `C[C@@H]1CN(Cc2nc3ncccc3n2C)CC[C@@H]1c1ccc(F)cc1F` (relative stereo) [compound 124], the EC50 came to 0.118 µM.

Regarding `CC(C)Oc1ccc([C@H]2CCN(Cc3nc4ncccc4n3C)C[C@H]2C)cc1F` (relative stereo) [compound 182], the EC50 came out at 0.577 µM.

As for `C[C@@H]1CN(Cc2nc3ncccc3n2C)CC[C@@H]1c1ccc(OC(F)F)cc1` (single isomer, unassigned) [compound 224], the EC50 is above 1.92 µM.

Turning to `C[C@@H]1CN(Cc2nc3cnccc3n2C)CC[C@@H]1c1ccc2c(c1)CCCC2` (relative stereo) [compound 190], the 50% effective concentration (EC50) was found to be 0.573 µM.

Consider `COc1cc(F)ccc1[C@H]1CCN(Cc2nc3nccc4c3n2CCC4)C[C@H]1C` (relative stereo) [Example 134, 2-{[Cis-4-(4-fluoro-2-methoxyphenyl)-3-methylpiperidin-1-yl]methyl}-5,6-dihydro-4H-imidazo[4,5,1-ij]-1,7-naphthyridine], for which the concentration for a half-maximal effect (EC50) was determined as 0.0302 µM.

For the molecule `C[C@@H]1CN(Cc2nc3ncccc3n2C)CC[C@@H]1c1ccc(Cl)cc1F` (single isomer, unassigned) [compound 122], the EC50 was found to be 0.0288 µM.

`COc1ccc(C2CCN(Cc3nc4ncccc4n3C)CC2)cc1F` [compound 92]: the half-maximal effective concentration (EC50) turned out to be 2.8 µM.

For the molecule `C[C@@H]1CN(Cc2nc3cnccc3n2C)CC[C@@H]1c1ccc(C(F)(F)F)c(F)c1` (single isomer, unassigned) [compound 184], the concentration giving a half-maximal response (EC50) is above 2.71 µM.

Consider `COc1cc(F)ccc1[C@H]1CCN(Cc2nc3ncccc3n2C)C[C@H]1C` (relative stereo) [compound 132], for which the EC50 is 0.0785 µM.

With `CCCOc1ccc(Cl)cc1C1CCN(Cc2nc3cnccc3n2C)CC1` [compound 39], the EC50 was found to be 0.396 µM.

Staying with this test, now noted: HEK cells stably transfected with mGluR2 and Gα15; FLIPR (Fluo-4); potentiation of an EC10 to EC20 concentration of glutamate; Table 9.
On to `COc1cc(F)ccc1[C@H]1CCN(Cc2nc3nccc4c3n2CCC4)C[C@H]1C` (relative stereo) [Example 134, 2-{[Cis-4-(4-fluoro-2-methoxyphenyl)-3-methylpiperidin-1-yl]methyl}-5,6-dihydro-4H-imidazo[4,5,1-ij]-1,7-naphthyridine], for which the concentration for a half-maximal effect (EC50) worked out at 0.0302 µM.

The same test, now with this note: mGluR2 potentiator screen, FLIPR, EC10-EC20 glutamate challenge.
For the molecule `Cc1cc(C(F)(F)F)ccc1C1CCN(Cc2nc3cnccc3n2C)CC1` [compound 242], the EC50 turned out to be 0.0858 µM.

As to `CC(C)Oc1ccc(C2CCN(Cc3nc4ncccc4n3C)CC2)c(F)c1` [compound 262], the EC50 was 0.127 µM.

As for `COc1cc(C2CCN(Cc3nc4ncccc4n3C)CC2)ccc1C(F)(F)F` [compound 279], the concentration for a half-maximal effect (EC50) stood at 0.289 µM.

For the molecule `C[C@@H]1CN(Cc2nc3cnccc3n2C)CC[C@@H]1c1ccc(C(F)(F)F)c(Cl)c1` (relative stereo) [compound 235], the EC50 turned out to be 0.135 µM.

On to `Cn1c(CN2CCC(c3ccc(OC(F)(F)F)cc3)CC2)nc2cnccc21` [compound 237], for which the EC50 is 0.16 µM.

Consider `CC(C)Oc1ccc(C2CCN(Cc3nc4ncccc4n3C)CC2)c(Cl)c1` [compound 269], for which the half-maximal effective concentration (EC50) worked out at 0.0657 µM.

Regarding `C[C@@H]1CN(Cc2nc3ncccc3n2C)CC[C@@H]1c1ccc(C(F)(F)F)c(Cl)c1` (relative stereo) [compound 234], the EC50 was 0.101 µM.

With `COc1ccc(C2CCN(Cc3nc4cnccc4n3C)CC2)c(C(F)(F)F)c1` [compound 270], the concentration giving a half-maximal response (EC50) came out at 0.494 µM.

In the case of `COc1cc(F)ccc1[C@H]1CCN(Cc2nc3cnccc3n2C)C[C@H]1C` (single isomer, unassigned) [compound 260], the 50% effective concentration (EC50) turned out to be 0.125 µM.

One may read the EC50 as the concentration needed to bring the measured effect to its halfway point.
